Each molecule was assayed against PRMT5-MEP50 (Homo sapiens, UniProt O14744) (assay: PRMT5 Assay (PRMT5 biochemical assay)). Settings: not given.
Sequence of PRMT5-MEP50 (O14744 whole entry): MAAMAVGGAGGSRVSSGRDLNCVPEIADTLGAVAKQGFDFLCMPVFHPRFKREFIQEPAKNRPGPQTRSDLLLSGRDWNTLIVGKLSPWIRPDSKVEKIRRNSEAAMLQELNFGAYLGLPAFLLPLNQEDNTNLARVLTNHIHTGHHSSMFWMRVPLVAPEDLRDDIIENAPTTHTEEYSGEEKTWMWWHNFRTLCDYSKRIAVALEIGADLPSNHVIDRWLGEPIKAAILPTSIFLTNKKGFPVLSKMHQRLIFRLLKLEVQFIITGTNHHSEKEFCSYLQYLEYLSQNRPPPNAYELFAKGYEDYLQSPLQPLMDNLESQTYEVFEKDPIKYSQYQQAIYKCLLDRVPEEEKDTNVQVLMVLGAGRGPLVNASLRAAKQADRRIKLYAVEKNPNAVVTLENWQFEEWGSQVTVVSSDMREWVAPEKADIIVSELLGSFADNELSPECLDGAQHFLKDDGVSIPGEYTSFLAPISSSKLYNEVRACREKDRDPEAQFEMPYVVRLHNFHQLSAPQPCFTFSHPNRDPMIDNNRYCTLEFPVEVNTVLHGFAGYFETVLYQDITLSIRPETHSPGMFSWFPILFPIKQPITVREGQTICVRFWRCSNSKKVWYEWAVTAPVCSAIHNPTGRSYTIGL
Sequence of PRMT5-MEP50 (Q9BQA1 whole entry partner): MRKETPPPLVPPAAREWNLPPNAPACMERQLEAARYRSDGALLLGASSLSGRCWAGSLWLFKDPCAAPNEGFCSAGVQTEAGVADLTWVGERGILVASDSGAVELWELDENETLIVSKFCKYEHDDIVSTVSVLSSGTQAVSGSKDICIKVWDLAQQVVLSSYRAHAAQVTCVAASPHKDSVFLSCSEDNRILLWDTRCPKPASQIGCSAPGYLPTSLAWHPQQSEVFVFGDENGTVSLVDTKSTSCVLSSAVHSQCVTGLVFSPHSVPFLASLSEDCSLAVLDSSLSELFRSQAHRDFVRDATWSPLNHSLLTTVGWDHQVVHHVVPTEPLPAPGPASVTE
Description: Assays were performed in a 25 μl-volume in 384-well V-bottom polypropylene microplates (Greiner Bio-One, cat. No. 781280) at ambient temperature. Optimized 1× assay buffer was 20 mM Tris-HCl pH 8.0, 1 mM DTT, […]. For compound screening PRMT5-MEP50 (final concentration, f.c.=2.5 nM) was added using a Multidrop Combi (ThermoFisher Scientific, Waltham, Mass.) and preincubated for 5 min. Reactions were started by adding 3′ biotinylated histone H4 peptide acetylated on serine 1 (Ac-[…]-Biotin) (f.c.=100 nM) and 3H-SAM (f.c.=250 nM) substrates. Reactions proceeded for 60 minutes and were quenched with excess non-radioactive SAM (f.c.=15 μM). The reactions were then transferred to streptavidin-coated flashplates and incubated for 2 hours at 25° C. Following two washing cycles with 0.1% Tween-20, the plates were sealed and read on a TopCount (PerkinElmer, Waltham, Mass.) plate-based scintillation counter. For determination of kinetic parameters, reaction times were optimized so that measurements were taken during the initial velocity phase of the reaction.
With `CNc1ccc2ccc(OC[C@H]3O[C@@H](n4cc(-c5cn(C(C)C)cn5)c5c(N)ncnc54)[C@@H](F)[C@@H]3O)cc2n1` [I-233] the IC50 was > 1000 nM.

Same assay, conditions: PRMT5 biochemical assay; read-out: PRMT5 IC50
In the case of `CNC(=O)Nc1cccc(CC[C@H]2C[C@@H](n3ccc4c(N)ncnc43)[C@H](O)[C@@H]2O)c1` [I-99], the IC50 is reported as 100 to 1000 nM.
With `Nc1cc2cc(CC[C@H]3C[C@@H](n4ccc5c(N)ncnc54)[C@H](O)[C@@H]3O)ccc2cn1` [I-100] the IC50 was 10 to 100 nM.
`Nc1ncnc2c1ccn2[C@@H]1C[C@H](CCc2ccc3cc[nH]c3c2)[C@@H](O)[C@H]1O` [I-101] gave an IC50 of 100 to 1000 nM.
`CCCNc1ncnc2c1ccn2[C@@H]1C[C@H](CCc2ccc3ccc(N)nc3c2)[C@@H](O)[C@H]1O` [I-102] was tested, and the IC50 was < 10 nM.
`Nc1ncnc2c1ccn2[C@@H]1C[C@H](CCc2ccc3cn[nH]c3c2)[C@@H](O)[C@H]1O` [I-103] was tested, and the IC50 was 10 to 100 nM.
With `Nc1ncnc2c1ccn2[C@@H]1C[C@H](CCc2ccc3scnc3c2)[C@@H](O)[C@H]1O` [I-104] the IC50 was < 10 nM.
With `Nc1ncnc2c1ccn2[C@@H]1C[C@H](CCc2ccc3ccc(NCCO)nc3c2)[C@@H](O)[C@H]1O` [I-105] the IC50 was < 10 nM.
Molecule `Nc1ncnc2c1ccn2[C@@H]1C[C@H](CCc2ccc3[nH]ncc3c2)[C@@H](O)[C@H]1O` [I-106] has an IC50 of 100 to 1000 nM.
In the case of `Nc1ccc2ccc(CC[C@H]3C[C@@H](n4cc(Br)c5c(N)ncnc54)[C@H](O)[C@@H]3O)cc2n1` [I-107], the IC50 is reported as < 10 nM.
`Nc1ccc2ccc(CC[C@H]3C[C@@H](n4ccc5c(N)ncnc54)[C@H](O)[C@@H]3O)cc2c1` [I-108] was tested, and the IC50 was 100 to 1000 nM.
In the case of `Nc1ccc2ccc(NC[C@H]3C[C@@H](n4ccc5c(N)ncnc54)[C@H](O)[C@@H]3O)cc2n1` [I-109], the IC50 is reported as 10 to 100 nM.
With `Nc1cccc2ccc(CC[C@H]3C[C@@H](n4ccc5c(N)ncnc54)[C@H](O)[C@@H]3O)cc12` [I-110] the IC50 was 100 to 1000 nM.
`Nc1ncnc2c1ccn2[C@@H]1C[C@H](CCc2ccc3cc(C#Cc4ccccc4)cnc3c2)[C@@H](O)[C@H]1O` [I-112] showed an IC50 of 10 to 100 nM.
`Nc1ncnc2c1ccn2[C@@H]1C[C@H](CCc2cccc(=O)[nH]2)[C@@H](O)[C@H]1O` [I-113] gave an IC50 of 100 to 1000 nM.

What follows are molecules tested against METTL3/METTL14 (Homo sapiens, UniProt Q86U44) (assay: METTL3-14 Standard Enzyme Assay (METTL3 biochemical assay)). Settings: not given.
Sequence of METTL3/METTL14 (Q86U44 whole entry, species assumed): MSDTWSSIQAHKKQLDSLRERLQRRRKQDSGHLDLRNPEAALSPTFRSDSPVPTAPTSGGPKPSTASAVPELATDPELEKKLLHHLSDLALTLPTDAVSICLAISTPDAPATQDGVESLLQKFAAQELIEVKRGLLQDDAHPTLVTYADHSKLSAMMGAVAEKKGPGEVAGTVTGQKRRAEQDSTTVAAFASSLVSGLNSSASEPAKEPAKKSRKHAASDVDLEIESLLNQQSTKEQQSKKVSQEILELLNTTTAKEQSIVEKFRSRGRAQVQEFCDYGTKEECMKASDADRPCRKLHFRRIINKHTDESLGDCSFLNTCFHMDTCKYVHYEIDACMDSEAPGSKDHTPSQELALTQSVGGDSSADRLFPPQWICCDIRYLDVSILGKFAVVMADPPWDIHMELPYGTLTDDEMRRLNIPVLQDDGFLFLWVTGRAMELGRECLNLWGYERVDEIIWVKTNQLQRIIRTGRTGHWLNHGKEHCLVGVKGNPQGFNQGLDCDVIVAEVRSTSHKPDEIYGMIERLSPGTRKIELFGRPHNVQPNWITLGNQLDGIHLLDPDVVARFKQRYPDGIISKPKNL
Sequence of METTL3/METTL14 (Q9HCE5 whole entry partner, species assumed): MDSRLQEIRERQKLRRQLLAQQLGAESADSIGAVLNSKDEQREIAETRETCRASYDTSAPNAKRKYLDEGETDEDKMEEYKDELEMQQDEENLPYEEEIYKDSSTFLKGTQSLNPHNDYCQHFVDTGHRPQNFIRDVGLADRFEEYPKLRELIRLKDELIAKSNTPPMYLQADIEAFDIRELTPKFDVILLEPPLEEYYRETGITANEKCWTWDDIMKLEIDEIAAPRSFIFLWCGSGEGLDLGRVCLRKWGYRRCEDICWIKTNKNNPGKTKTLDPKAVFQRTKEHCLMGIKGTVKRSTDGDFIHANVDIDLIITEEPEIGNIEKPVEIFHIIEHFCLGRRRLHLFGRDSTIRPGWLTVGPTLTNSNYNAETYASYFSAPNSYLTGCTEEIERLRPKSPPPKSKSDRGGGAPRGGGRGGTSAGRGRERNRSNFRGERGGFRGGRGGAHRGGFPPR
Description: Assays were performed in a 25 μl-volume in 384-well V-bottom polypropylene microplates (Greiner Bio-One, cat. No. 781280) at ambient temperature. Optimized 1× assay buffer was 20 mM HEPES pH 7.5, 50 mM KCl, 250 μM MgCl2, 1 mM DTT, 0.01% Tween, 0.01% BSG, 0.004 U/μl RNAseOUT (cat. No. 10777019, ThermoFisher Scientific, Waltham, Mass.). For compound screening METTL3/METTL14 (final concentration, f.c.=2.5 nM) was added using a Multidrop Combi (ThermoFisher Scientific, Waltham, Mass.) and preincubated for 5 min. Reactions were started by adding 3′ biotinylated RNA ([…]-biotin) (f.c.=100 nM) and 3H-SAM (f.c.=100 nM) substrates. Reactions proceeded for 30 minutes and were quenched with excess non-radioactive SAM (f.c.=15 μM). The reactions were then transferred to streptavidin-coated flashplates and incubated for 2 hours at 25° C. Following two washing cycles with 0.1% Tween-20, the plates were sealed and read on a TopCount (PerkinElmer, Waltham, Mass.) plate-based scintillation counter. For determination of kinetic parameters, reaction times were optimized so that measurements were taken during the initial velocity phase of the reaction.
With `CNc1ccc2ccc(OC[C@H]3O[C@@H](n4cc(-c5cn(C(C)C)cn5)c5c(N)ncnc54)[C@@H](F)[C@@H]3O)cc2n1` [I-233] the IC50 was 10 to 100 nM.

Same assay, conditions: METTL3 biochemical assay; read-out: METTL3 IC50
In the case of `CNC(=O)Nc1cccc(CC[C@H]2C[C@@H](n3ccc4c(N)ncnc43)[C@H](O)[C@@H]2O)c1` [I-99], the IC50 is reported as > 1000 nM.
With `Nc1cc2cc(CC[C@H]3C[C@@H](n4ccc5c(N)ncnc54)[C@H](O)[C@@H]3O)ccc2cn1` [I-100] the IC50 was > 1000 nM.
In the case of `Nc1ncnc2c1ccn2[C@@H]1C[C@H](CCc2ccc3cc[nH]c3c2)[C@@H](O)[C@H]1O` [I-101], the IC50 is reported as > 1000 nM.
`CCCNc1ncnc2c1ccn2[C@@H]1C[C@H](CCc2ccc3ccc(N)nc3c2)[C@@H](O)[C@H]1O` [I-102] was tested, and the IC50 was > 1000 nM.
With `Nc1ncnc2c1ccn2[C@@H]1C[C@H](CCc2ccc3cn[nH]c3c2)[C@@H](O)[C@H]1O` [I-103] the IC50 was > 1000 nM.
With `Nc1ncnc2c1ccn2[C@@H]1C[C@H](CCc2ccc3scnc3c2)[C@@H](O)[C@H]1O` [I-104] the IC50 was > 1000 nM.
`Nc1ncnc2c1ccn2[C@@H]1C[C@H](CCc2ccc3ccc(NCCO)nc3c2)[C@@H](O)[C@H]1O` [I-105] gave an IC50 of 100 to 1000 nM.
In the case of `Nc1ncnc2c1ccn2[C@@H]1C[C@H](CCc2ccc3[nH]ncc3c2)[C@@H](O)[C@H]1O` [I-106], the IC50 is reported as > 1000 nM.
For `Nc1ccc2ccc(CC[C@H]3C[C@@H](n4cc(Br)c5c(N)ncnc54)[C@H](O)[C@@H]3O)cc2n1` [I-107], the IC50 was 10 to 100 nM.
`Nc1ccc2ccc(CC[C@H]3C[C@@H](n4ccc5c(N)ncnc54)[C@H](O)[C@@H]3O)cc2c1` [I-108] was tested, and the IC50 was > 1000 nM.
In the case of `Nc1ccc2ccc(NC[C@H]3C[C@@H](n4ccc5c(N)ncnc54)[C@H](O)[C@@H]3O)cc2n1` [I-109], the IC50 is reported as > 1000 nM.
`Nc1cccc2ccc(CC[C@H]3C[C@@H](n4ccc5c(N)ncnc54)[C@H](O)[C@@H]3O)cc12` [I-110] was tested, and the IC50 was > 1000 nM.
For `Nc1ncnc2c1ccn2[C@@H]1C[C@H](CCc2ccc3cc(C#Cc4ccccc4)cnc3c2)[C@@H](O)[C@H]1O` [I-112], the IC50 was > 1000 nM.
`Nc1ncnc2c1ccn2[C@@H]1C[C@H](CCc2cccc(=O)[nH]2)[C@@H](O)[C@H]1O` [I-113] was tested, and the IC50 was > 1000 nM.

What follows are molecules tested against METTL1/WDR4 (Homo sapiens, UniProt Q9UBP6) (assay: METTL1 Assay (METTL1 biochemical assay)). Settings: METTL1 biochemical assay; read-out: METTL1 IC50.
Sequence of METTL1/WDR4 (Q9UBP6 whole entry, species assumed): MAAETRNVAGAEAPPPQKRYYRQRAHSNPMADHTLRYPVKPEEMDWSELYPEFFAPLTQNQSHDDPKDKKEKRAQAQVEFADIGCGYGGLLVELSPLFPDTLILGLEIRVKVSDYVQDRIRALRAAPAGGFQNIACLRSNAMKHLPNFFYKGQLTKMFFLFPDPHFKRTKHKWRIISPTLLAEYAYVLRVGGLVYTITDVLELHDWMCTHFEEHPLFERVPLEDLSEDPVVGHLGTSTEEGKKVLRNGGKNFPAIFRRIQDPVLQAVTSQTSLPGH
Sequence of METTL1/WDR4 (P57081 whole entry partner, species assumed): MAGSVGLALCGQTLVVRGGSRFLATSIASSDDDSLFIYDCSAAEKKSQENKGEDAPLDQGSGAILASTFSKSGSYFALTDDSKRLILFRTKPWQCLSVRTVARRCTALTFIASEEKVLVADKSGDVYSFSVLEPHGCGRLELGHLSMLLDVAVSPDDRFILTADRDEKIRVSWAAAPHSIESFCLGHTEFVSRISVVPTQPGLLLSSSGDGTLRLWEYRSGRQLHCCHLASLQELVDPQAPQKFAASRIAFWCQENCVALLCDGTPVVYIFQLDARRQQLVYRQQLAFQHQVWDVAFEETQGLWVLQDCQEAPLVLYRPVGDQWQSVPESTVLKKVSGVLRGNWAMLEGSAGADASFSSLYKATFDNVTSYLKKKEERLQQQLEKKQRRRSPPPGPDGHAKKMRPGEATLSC
Description: Assays were performed in a 25 μl-volume in 384-well V-bottom polypropylene microplates (Greiner Bio-One, cat. No. 781280) at ambient temperature. Optimized 1× assay buffer was 20 mM HEPES pH 7.5, 50 mM KCl, 250 μM MgCl2, 1 mM DTT, 0.01% Tween, 0.01% BSG, 0.004 U/μl RNAseOUT (cat. No. 10777019, ThermoFisher Scientific, Waltham, Mass.). For compound screening METTL1/WDR4 (final concentration, f.c.=6.25 nM) was added using a Multidrop Combi (ThermoFisher Scientific, Waltham, Mass.) and preincubated for 5 min. Reactions were started by adding 3′ biotinylated RNA ([…]-biotin) (f.c.=25 nM) and 3H-SAM (f.c.=60 nM) substrates. Reactions proceeded for 20 minutes and were quenched with excess non-radioactive SAM (f.c.=15 μM). The reactions were then transferred to streptavidin-coated flashplates and incubated for 2 hours at 25° C. Following two washing cycles with 0.1% Tween-20, the plates were sealed and read on a TopCount (PerkinElmer, Waltham, Mass.) plate-based scintillation counter. For determination of kinetic parameters, reaction times were optimized so that measurements were taken during the initial velocity phase of the reaction.
`CNc1ccc2ccc(OC[C@H]3O[C@@H](n4cc(-c5cn(C(C)C)cn5)c5c(N)ncnc54)[C@@H](F)[C@@H]3O)cc2n1` [I-233] was tested, and the IC50 was > 1000 nM.

Same assay, conditions: read-out: METTL1 IC50; METTL1 biochemical assay
With `CNC(=O)Nc1cccc(CC[C@H]2C[C@@H](n3ccc4c(N)ncnc43)[C@H](O)[C@@H]2O)c1` [I-99] the IC50 was > 1000 nM.
For `Nc1cc2cc(CC[C@H]3C[C@@H](n4ccc5c(N)ncnc54)[C@H](O)[C@@H]3O)ccc2cn1` [I-100], the IC50 was > 1000 nM.
`Nc1ncnc2c1ccn2[C@@H]1C[C@H](CCc2ccc3cc[nH]c3c2)[C@@H](O)[C@H]1O` [I-101] was tested, and the IC50 was > 1000 nM.
With `CCCNc1ncnc2c1ccn2[C@@H]1C[C@H](CCc2ccc3ccc(N)nc3c2)[C@@H](O)[C@H]1O` [I-102] the IC50 was > 1000 nM.
With `Nc1ncnc2c1ccn2[C@@H]1C[C@H](CCc2ccc3cn[nH]c3c2)[C@@H](O)[C@H]1O` [I-103] the IC50 was > 1000 nM.
With `Nc1ncnc2c1ccn2[C@@H]1C[C@H](CCc2ccc3scnc3c2)[C@@H](O)[C@H]1O` [I-104] the IC50 was > 1000 nM.
In the case of `Nc1ncnc2c1ccn2[C@@H]1C[C@H](CCc2ccc3ccc(NCCO)nc3c2)[C@@H](O)[C@H]1O` [I-105], the IC50 is reported as > 1000 nM.
With `Nc1ncnc2c1ccn2[C@@H]1C[C@H](CCc2ccc3[nH]ncc3c2)[C@@H](O)[C@H]1O` [I-106] the IC50 was > 1000 nM.
With `Nc1ccc2ccc(CC[C@H]3C[C@@H](n4cc(Br)c5c(N)ncnc54)[C@H](O)[C@@H]3O)cc2n1` [I-107] the IC50 was > 1000 nM.
`Nc1ccc2ccc(CC[C@H]3C[C@@H](n4ccc5c(N)ncnc54)[C@H](O)[C@@H]3O)cc2c1` [I-108] was tested, and the IC50 was > 1000 nM.
`Nc1ccc2ccc(NC[C@H]3C[C@@H](n4ccc5c(N)ncnc54)[C@H](O)[C@@H]3O)cc2n1` [I-109] was tested, and the IC50 was > 1000 nM.
In the case of `Nc1cccc2ccc(CC[C@H]3C[C@@H](n4ccc5c(N)ncnc54)[C@H](O)[C@@H]3O)cc12` [I-110], the IC50 is reported as > 1000 nM.
For `Nc1ncnc2c1ccn2[C@@H]1C[C@H](CCc2ccc3cc(C#Cc4ccccc4)cnc3c2)[C@@H](O)[C@H]1O` [I-112], the IC50 was > 1000 nM.
`Nc1ncnc2c1ccn2[C@@H]1C[C@H](CCc2cccc(=O)[nH]2)[C@@H](O)[C@H]1O` [I-113] was tested, and the IC50 was > 1000 nM.

Source: patent publication US20230027361A1, “METTL3 MODULATORS” (priority 2019, published 2023)
